Assay results as given in patent US20240081328A1, “Use of 4-Nitro-3-(Trifluoromethyl)Phenol in Killing or Controlling Pomacea Canaliculata, Method for Killing or Controlling Pomacea Canaliculata, and Molluscicide” (priority 2021, published 2024).
Read-outs that look alike come from different tables or passages of the source.

Tested on: Pomacea canaliculata
Test: Immersion test of dilutions in beakers, mortality rate of Pomacea canaliculata
Format: in vivo
Details: for mortality at 0.0039 µg/mL / mortality at 0.0078 µg/mL / mortality at 0.0156 µg/mL / mortality at 0.0312 µg/mL / mortality at 0.0625 µg/mL / mortality at 0.125 µg/mL / mortality at 0.25 µg/mL / mortality at 0.5 µg/mL: Pomacea canaliculata, read-out: Mortality rate (%) of Pomacea canaliculata at different action time (h); for mortality at 0.0039 µg/mL: 0.0039 mg/L; for mortality at 0.0078 µg/mL: 0.0078 mg/L; for mortality at 0.0156 µg/mL: 0.0156 mg/L; for mortality at 0.0312 µg/mL: 0.0312 mg/L; for mortality at 0.0625 µg/mL: 0.0625 mg/L
Description: 0.5 mg of 4-nitro-3-(trifluoromethyl)phenol and 0.5 mg of niclosamide were completely dissolved in 1 mL of a dimethyl sulfoxide (DMSO) solution separately, and diluted to 1,000 mL with deaminized water to obtain a 4-nitro-3-(trifluoromethyl)phenol solution with a concentration of 0.5 mg/L and a niclosamide solution with a concentration of 0.5 mg/L.
The two solutions were separately diluted into 7 concentrations of dilutions using a doubling dilution method, including 0.25 mg/L, 0.125 mg/L, 0.0625 mg/L, 0.0312 mg/L, 0.0156 mg/L, and 0.0078 mg/L, and 0.0039 mg/L.
400 mL of the dilutions with different concentrations were separately poured into a 500 mL beaker, 10 Pomacea canaliculata samples were put into the dilution of each concentration, and each bottle mouth was sealed with wire mesh to completely immerse the Pomacea canaliculata in the dilution; clear water was used as a control group.
The experimental data were used to calculate the mortality rate of each treatment according to the following formula. Each calculation result was rounded to two decimal places. A formula for calculating the mortality rate was: […]
In the formula: P represented the mortality rate, in percentage (%); Σ^Ki represented • the number of dead Pomacea canaliculata, in snails; Σ^Ni represented the total number of treated Pomacea canaliculata, in snails.

`O=C(Nc1ccc([N+](=O)[O-])cc1Cl)c1cc(Cl)ccc1O` [niclosamide] was tested. Which “killing of Pomacea canaliculata (in words)” value (“killing” below) (0.125 mg/L, within 24 h) did it give?
The value was “all Pomacea canaliculata died”.

And the “killing” value (0.25 mg/L, action time 12 h)?
Its value is “all Pomacea canaliculata died”.

What about the “killing” value (0.5 mg/L, action time 12 h) of the same compound?
The value was “all Pomacea canaliculata died”.

What about the mortality at 0.0039 µg/mL (action time 0 h) of the same compound?
The mortality at 0.0039 µg/mL was 0%.

What about the mortality at 0.0039 µg/mL (action time 12 h) of the same compound?
Its mortality at 0.0039 µg/mL is 0%.

And the mortality at 0.0039 µg/mL (action time 24 h)?
Its mortality at 0.0039 µg/mL is 20%.

What about the mortality at 0.0039 µg/mL (action time 36 h) of the same compound?
The mortality at 0.0039 µg/mL was 30%.

And the mortality at 0.0039 µg/mL (action time 48 h)?
Its mortality at 0.0039 µg/mL is 30%.

And the mortality at 0.0039 µg/mL (action time 60 h)?
The mortality at 0.0039 µg/mL was 30%.

What about the mortality at 0.0039 µg/mL (action time 72 h) of the same compound?
Its mortality at 0.0039 µg/mL is 40%.

And the mortality at 0.0078 µg/mL (action time 0 h)?
The mortality at 0.0078 µg/mL was 0%.

And the mortality at 0.0078 µg/mL (action time 12 h)?
Its mortality at 0.0078 µg/mL is 10%.

And the mortality at 0.0078 µg/mL (action time 24 h)?
The mortality at 0.0078 µg/mL was 40%.

And the mortality at 0.0078 µg/mL (action time 36 h)?
Its mortality at 0.0078 µg/mL is 40%.

What about the mortality at 0.0078 µg/mL (action time 48 h) of the same compound?
The mortality at 0.0078 µg/mL was 40%.

And the mortality at 0.0078 µg/mL (action time 60 h)?
Its mortality at 0.0078 µg/mL is 40%.

What about the mortality at 0.0078 µg/mL (action time 72 h) of the same compound?
The mortality at 0.0078 µg/mL was 70%.

And the mortality at 0.0156 µg/mL (action time 0 h)?
The mortality at 0.0156 µg/mL was 0%.

What about the mortality at 0.0156 µg/mL (action time 12 h) of the same compound?
Its mortality at 0.0156 µg/mL is 10%.

What about the mortality at 0.0156 µg/mL (action time 24 h) of the same compound?
Its mortality at 0.0156 µg/mL is 30%.

And the mortality at 0.0156 µg/mL (action time 36 h)?
Its mortality at 0.0156 µg/mL is 60%.

What about the mortality at 0.0156 µg/mL (action time 48 h) of the same compound?
Its mortality at 0.0156 µg/mL is 70%.

What about the mortality at 0.0156 µg/mL (action time 60 h) of the same compound?
The mortality at 0.0156 µg/mL was 70%.

What about the mortality at 0.0156 µg/mL (action time 72 h) of the same compound?
Its mortality at 0.0156 µg/mL is 70%.

What about the mortality at 0.0312 µg/mL (action time 0 h) of the same compound?
The mortality at 0.0312 µg/mL was 0%.

What about the mortality at 0.0312 µg/mL (action time 12 h) of the same compound?
The mortality at 0.0312 µg/mL was 10%.

And the mortality at 0.0312 µg/mL (action time 24 h)?
Its mortality at 0.0312 µg/mL is 50%.

What about the mortality at 0.0312 µg/mL (action time 36 h) of the same compound?
Its mortality at 0.0312 µg/mL is 70%.

And the mortality at 0.0312 µg/mL (action time 48 h)?
The mortality at 0.0312 µg/mL was 80%.

What about the mortality at 0.0312 µg/mL (action time 60 h) of the same compound?
The mortality at 0.0312 µg/mL was 80%.

What about the mortality at 0.0312 µg/mL (action time 72 h) of the same compound?
The mortality at 0.0312 µg/mL was 80%.

What about the mortality at 0.0625 µg/mL (action time 0 h) of the same compound?
Its mortality at 0.0625 µg/mL is 0%.

And the mortality at 0.0625 µg/mL (action time 12 h)?
Its mortality at 0.0625 µg/mL is 30%.

What about the mortality at 0.0625 µg/mL (action time 24 h) of the same compound?
Its mortality at 0.0625 µg/mL is 50%.

What about the mortality at 0.0625 µg/mL (action time 36 h) of the same compound?
The mortality at 0.0625 µg/mL was 80%.

What about the mortality at 0.0625 µg/mL (action time 48 h) of the same compound?
Its mortality at 0.0625 µg/mL is 80%.

And the mortality at 0.0625 µg/mL (action time 60 h)?
Its mortality at 0.0625 µg/mL is 100%.

What about the mortality at 0.0625 µg/mL (action time 72 h) of the same compound?
The mortality at 0.0625 µg/mL was 100%.

What about the mortality at 0.125 µg/mL (0.125 mg/L, action time 0 h) of the same compound?
The mortality at 0.125 µg/mL was 0%.

And the mortality at 0.125 µg/mL (0.125 mg/L, action time 12 h)?
Its mortality at 0.125 µg/mL is 90%.

What about the mortality at 0.125 µg/mL (0.125 mg/L, action time 24 h) of the same compound?
Its mortality at 0.125 µg/mL is 100%.

And the mortality at 0.125 µg/mL (0.125 mg/L, action time 36 h)?
The mortality at 0.125 µg/mL was 100%.

And the mortality at 0.125 µg/mL (0.125 mg/L, action time 48 h)?
The mortality at 0.125 µg/mL was 100%.

And the mortality at 0.125 µg/mL (0.125 mg/L, action time 60 h)?
The mortality at 0.125 µg/mL was 100%.

What about the mortality at 0.125 µg/mL (0.125 mg/L, action time 72 h) of the same compound?
The mortality at 0.125 µg/mL was 100%.

And the mortality at 0.25 µg/mL (0.25 mg/L, action time 0 h)?
The mortality at 0.25 µg/mL was 0%.

And the mortality at 0.25 µg/mL (0.25 mg/L, action time 12 h)?
The mortality at 0.25 µg/mL was 100%.

And the mortality at 0.25 µg/mL (0.25 mg/L, action time 24 h)?
The mortality at 0.25 µg/mL was 100%.

And the mortality at 0.25 µg/mL (0.25 mg/L, action time 36 h)?
The mortality at 0.25 µg/mL was 100%.

And the mortality at 0.25 µg/mL (0.25 mg/L, action time 48 h)?
The mortality at 0.25 µg/mL was 100%.

What about the mortality at 0.25 µg/mL (0.25 mg/L, action time 60 h) of the same compound?
The mortality at 0.25 µg/mL was 100%.

And the mortality at 0.25 µg/mL (0.25 mg/L, action time 72 h)?
The mortality at 0.25 µg/mL was 100%.

And the mortality at 0.5 µg/mL (0.5 mg/L, action time 0 h)?
Its mortality at 0.5 µg/mL is 0%.

And the mortality at 0.5 µg/mL (0.5 mg/L, action time 12 h)?
Its mortality at 0.5 µg/mL is 100%.

And the mortality at 0.5 µg/mL (0.5 mg/L, action time 24 h)?
The mortality at 0.5 µg/mL was 100%.

And the mortality at 0.5 µg/mL (0.5 mg/L, action time 36 h)?
The mortality at 0.5 µg/mL was 100%.

What about the mortality at 0.5 µg/mL (0.5 mg/L, action time 48 h) of the same compound?
Its mortality at 0.5 µg/mL is 100%.

What about the mortality at 0.5 µg/mL (0.5 mg/L, action time 60 h) of the same compound?
The mortality at 0.5 µg/mL was 100%.

And the mortality at 0.5 µg/mL (0.5 mg/L, action time 72 h)?
The mortality at 0.5 µg/mL was 100%.

And the “mortality rate of Pomacea canaliculata within 72 h” value (concentration of below 0.0312 mg/L, within 72 h)?
The value was under 100%.
